The values below are quoted from earlier work in paper PMC11776332 (Virology Journal, 2025).

For the series, the system named is HIV-1.

With `C=C(C)[C@@H]1CC[C@]2(NCCN3CCS(=O)(=O)CC3)CC[C@]3(C)[C@H](CC[C@@H]4[C@@]5(C)CC=C(C6=CC[C@@](CF)(C(=O)O)CC6)C(C)(C)[C@@H]5CC[C@]43C)[C@@H]12` [GSK3640254], the “IC50 compared with CV-10240” value is reported as “lower IC50 than CV-10240”.
